# Data from ChEMBL document CHEMBL3885861, “Open TG-GATES”.
# Species on record: Rattus norvegicus
# Test: Open TG-GATES - Regimen: Daily Repeat
# Assay type: toxicity, organism-based, Sprague-Dawley
# Set-up: regimen Daily Repeat, gender Male, age 6 weeks
# Settings: in vivo, po, 0 mg/kg, route gavage, dose level Control; for APTT / Bas / Eos / Fbg / Hb / Ht / Lym / MCH / MCHC / MCV / Mono / Neu / PT / Plat / RBC / Ret / WBC: tissue Blood; for KIDNEY_L / KIDNEY_R / KIDNEY_TOTAL: tissue Kidney; for LIVER: tissue Liver; for A/G / ALP / ALT / AST / BUN / CRE / Ca / Cl / DBIL / GLC / IP / K / LDH / Na / PL / RALB / TBIL / TC / TG / TP / gamma-GTP: tissue Plasma
smiles,measurement,setting,value
C[C@](N)(Cc1ccc(O)c(O)c1)C(=O)O [METHYLDOPA],TERMINAL_BW,"72 h, time 3 day",207.1 g
same,APTT,"72 h, time 3 day",15.9 s
same,Bas,"72 h, time 3 day",0%
same,Eos,"72 h, time 3 day",1.2%
same,Fbg,"72 h, time 3 day",258.8 mg/dL
same,Hb,"72 h, time 3 day",13.1 g/dL
same,Ht,"72 h, time 3 day",38.4%
same,Lym,"72 h, time 3 day",72.4%
same,MCH,"72 h, time 3 day",21.5 pg
same,MCHC,"72 h, time 3 day",34.1%
same,MCV,"72 h, time 3 day",63.1 fL
same,Mono,"72 h, time 3 day",3.4%
same,Neu,"72 h, time 3 day",22.6%
same,PT,"72 h, time 3 day",12.6 s
same,Plat,"72 h, time 3 day",117.2 x10_4/uL
same,RBC,"72 h, time 3 day",609 x10_4/ul
same,Ret,"72 h, time 3 day",7.9%
same,WBC,"72 h, time 3 day",72.1 x10_2/uL
same,KIDNEY_L,"72 h, time 3 day",0.9 g
same,KIDNEY_R,"72 h, time 3 day",0.9 g
same,KIDNEY_TOTAL,"72 h, time 3 day",1.8 g
same,LIVER,"72 h, time 3 day",9.3 g
same,A/G,"72 h, time 3 day",0.8
same,ALP,"72 h, time 3 day",1855.2 IU/L
same,ALT,"72 h, time 3 day",59.4 IU/L
same,AST,"72 h, time 3 day",80.2 IU/L
same,BUN,"72 h, time 3 day",14 mg/dL
same,CRE,"72 h, time 3 day",0.2 mg/dL
same,Ca,"72 h, time 3 day",11.1 mg/dL
same,Cl,"72 h, time 3 day",106.6 meq/L
same,DBIL,"72 h, time 3 day",0.008 mg/dL
same,GLC,"72 h, time 3 day",172.8 mg/dL
same,IP,"72 h, time 3 day",7.5 mg/dL
same,K,"72 h, time 3 day",3.9 meq/L
same,LDH,"72 h, time 3 day",52.2 IU/L
same,Na,"72 h, time 3 day",144.6 meq/L
same,PL,"72 h, time 3 day",129.8 mg/dL
same,RALB,"72 h, time 3 day",2.6 g/dL
same,TBIL,"72 h, time 3 day",0.056 mg/dL
same,TC,"72 h, time 3 day",76.8 mg/dL
same,TG,"72 h, time 3 day",61.4 mg/dL
same,TP,"72 h, time 3 day",5.6 g/dL
same,gamma-GTP,"72 h, time 3 day",1.2 IU/L
same,TERMINAL_BW,"[…], time 7 day",238 g
same,TERMINAL_BW,"[…], time 14 day",288.8 g
same,TERMINAL_BW,"[…], time 28 day",375.3 g
same,APTT,"[…], time 7 day",17 s
same,Bas,"[…], time 7 day",0%
same,Eos,"[…], time 7 day",1.2%
same,Fbg,"[…], time 7 day",283.2 mg/dL
same,Hb,"[…], time 7 day",13.5 g/dL
same,Ht,"[…], time 7 day",39.4%
same,Lym,"[…], time 7 day",75%
same,MCH,"[…], time 7 day",21 pg
same,MCHC,"[…], time 7 day",34.2%
same,MCV,"[…], time 7 day",61.4 fL
same,Mono,"[…], time 7 day",3%
same,Neu,"[…], time 7 day",20.4%
same,PT,"[…], time 7 day",12 s
same,Plat,"[…], time 7 day",114.7 x10_4/uL
same,RBC,"[…], time 7 day",641.2 x10_4/ul
same,Ret,"[…], time 7 day",6%
same,WBC,"[…], time 7 day",75.9 x10_2/uL
same,APTT,"[…], time 14 day",16.9 s
same,Bas,"[…], time 14 day",0%
same,Eos,"[…], time 14 day",1%
same,Fbg,"[…], time 14 day",290.4 mg/dL
same,Hb,"[…], time 14 day",13.8 g/dL
same,Ht,"[…], time 14 day",39.4%
same,Lym,"[…], time 14 day",76%
same,MCH,"[…], time 14 day",21.2 pg
same,MCHC,"[…], time 14 day",35%
same,MCV,"[…], time 14 day",60.4 fL
same,Mono,"[…], time 14 day",3.2%
same,Neu,"[…], time 14 day",19.6%
same,PT,"[…], time 14 day",14.1 s
same,Plat,"[…], time 14 day",102.2 x10_4/uL
same,RBC,"[…], time 14 day",652 x10_4/ul
same,Ret,"[…], time 14 day",4.8%
same,WBC,"[…], time 14 day",69.9 x10_2/uL
same,APTT,"[…], time 28 day",19.6 s
same,Bas,"[…], time 28 day",0%
same,Eos,"[…], time 28 day",1.4%
same,Fbg,"[…], time 28 day",315.2 mg/dL
same,Hb,"[…], time 28 day",15 g/dL
same,Ht,"[…], time 28 day",43.3%
same,Lym,"[…], time 28 day",74.4%
same,MCH,"[…], time 28 day",19.5 pg
same,MCHC,"[…], time 28 day",34.8%
same,MCV,"[…], time 28 day",56 fL
same,Mono,"[…], time 28 day",2.6%
same,Neu,"[…], time 28 day",21.4%
same,PT,"[…], time 28 day",13.6 s
same,Plat,"[…], time 28 day",106 x10_4/uL
same,RBC,"[…], time 28 day",774 x10_4/ul
same,Ret,"[…], time 28 day",2.7%
same,WBC,"[…], time 28 day",74.6 x10_2/uL
same,KIDNEY_L,"[…], time 7 day",1 g
same,KIDNEY_R,"[…], time 7 day",1 g
same,KIDNEY_TOTAL,"[…], time 7 day",2 g
same,KIDNEY_L,"[…], time 14 day",1.1 g
same,KIDNEY_R,"[…], time 14 day",1.1 g
same,KIDNEY_TOTAL,"[…], time 14 day",2.2 g
same,KIDNEY_L,"[…], time 28 day",1.3 g
same,KIDNEY_R,"[…], time 28 day",1.2 g
same,KIDNEY_TOTAL,"[…], time 28 day",2.5 g
same,LIVER,"[…], time 7 day",10.9 g
same,LIVER,"[…], time 14 day",12.7 g
same,LIVER,"[…], time 28 day",15.4 g
same,A/G,"[…], time 7 day",0.9
same,ALP,"[…], time 7 day",1514 IU/L
same,ALT,"[…], time 7 day",46.8 IU/L
same,AST,"[…], time 7 day",72 IU/L
same,BUN,"[…], time 7 day",15.6 mg/dL
same,CRE,"[…], time 7 day",0.2 mg/dL
same,Ca,"[…], time 7 day",11 mg/dL
same,Cl,"[…], time 7 day",108.6 meq/L
same,DBIL,"[…], time 7 day",0.008 mg/dL
same,GLC,"[…], time 7 day",178.2 mg/dL
same,IP,"[…], time 7 day",6.9 mg/dL
same,K,"[…], time 7 day",4.2 meq/L
same,LDH,"[…], time 7 day",57.4 IU/L
same,Na,"[…], time 7 day",143.8 meq/L
same,PL,"[…], time 7 day",140.8 mg/dL
same,RALB,"[…], time 7 day",2.7 g/dL
same,TBIL,"[…], time 7 day",0.056 mg/dL
same,TC,"[…], time 7 day",75.8 mg/dL
same,TG,"[…], time 7 day",93.2 mg/dL
same,TP,"[…], time 7 day",5.8 g/dL
same,gamma-GTP,"[…], time 7 day",1.2 IU/L
same,A/G,"[…], time 14 day",0.8
same,ALP,"[…], time 14 day",1553 IU/L
same,ALT,"[…], time 14 day",45.2 IU/L
same,AST,"[…], time 14 day",65.4 IU/L
same,BUN,"[…], time 14 day",15.2 mg/dL
same,CRE,"[…], time 14 day",0.2 mg/dL
same,Ca,"[…], time 14 day",11.3 mg/dL
same,Cl,"[…], time 14 day",107 meq/L
same,DBIL,"[…], time 14 day",0.01 mg/dL
same,GLC,"[…], time 14 day",188.4 mg/dL
same,IP,"[…], time 14 day",6.4 mg/dL
same,K,"[…], time 14 day",4.5 meq/L
same,LDH,"[…], time 14 day",66.2 IU/L
same,Na,"[…], time 14 day",142 meq/L
same,PL,"[…], time 14 day",151.8 mg/dL
same,RALB,"[…], time 14 day",2.7 g/dL
same,TBIL,"[…], time 14 day",0.058 mg/dL
same,TC,"[…], time 14 day",76 mg/dL
same,TG,"[…], time 14 day",140.8 mg/dL
same,TP,"[…], time 14 day",6 g/dL
same,gamma-GTP,"[…], time 14 day",1 IU/L
same,A/G,"[…], time 28 day",0.8
same,ALP,"[…], time 28 day",1221.8 IU/L
same,ALT,"[…], time 28 day",41.2 IU/L
same,AST,"[…], time 28 day",59 IU/L
same,BUN,"[…], time 28 day",15.4 mg/dL
same,CRE,"[…], time 28 day",0.2 mg/dL
same,Ca,"[…], time 28 day",11.2 mg/dL
same,Cl,"[…], time 28 day",105.6 meq/L
same,DBIL,"[…], time 28 day",0.018 mg/dL
same,GLC,"[…], time 28 day",185.4 mg/dL
same,IP,"[…], time 28 day",6 mg/dL
same,K,"[…], time 28 day",3.9 meq/L
same,LDH,"[…], time 28 day",46.2 IU/L
same,Na,"[…], time 28 day",142.8 meq/L
same,PL,"[…], time 28 day",167.8 mg/dL
same,RALB,"[…], time 28 day",2.8 g/dL
same,TBIL,"[…], time 28 day",0.06 mg/dL
same,TC,"[…], time 28 day",89 mg/dL
same,TG,"[…], time 28 day",140.8 mg/dL
same,TP,"[…], time 28 day",6.3 g/dL
same,gamma-GTP,"[…], time 28 day",1 IU/L
